Results from patent publication US20250302816A1, “DISRUPTION OF EPITHELIAL BARRIERS FOR MOLECULAR DELIVERY ENHANCEMENT OR EXTRACTION OF EXTRACELLULAR FLUIDS” (The University of Nottingham, priority 2022, published 2025).

Tests used:
ARPE-19 cell layers = assay: Transwell drug transport across ARPE-19 cell layers with or without 3OC12-HSL; assay type: cell-based, human; settings: 3OC12-HSL 200 μM
Protocol: (§1) FIG. 1: Macromolecular therapeutics transported across ARPE-19 cell layers in the absence and presence of 3OC12-HSL transported into the basolateral chamber over a period of five hours. Permeability experiments were initiated by applying 0.5 ml of the test solutions (250 μg/ml Aflibercept/Bevacizumab/or Doxorubicin diluted in HBSS/HEPES) to the apical side of the cells (donor compartment of the Transwell) with or without 3OC12-HSL (200 μM). Drug permeability was determined by sampling the basolateral solution at regular time intervals. Data points are expressed as means±SEM, derived from three replicates in triplicate. p values of <0.05 were considered statistically significant. *, ** and *** denote p<0.05, p<0.01 and p<0.001, respectively.
Calu-3 cells obtained from American Type Culture Collection, USA were cultured using Dulbecco's Modified Eagle Medium (DMEM) supplemented with penicillin (100 U/mL), streptomycin (0.1 mg/mL), amphotericin (0.25 μg/mL), non-essential amino acids (NEM, 1%) and Fetal Bovine Serum (FBS, 10% v/v, Sigma-Aldrich, UK). The human-derived RPE cell line ARPE-19 was obtained from American Type Culture Collection. Cells were grown in Dulbecco's Modified Eagle Medium: F12 (1:1; Gibco, Invitrogen, Carlsbad, CA), including 10% inactivated fetal bovine serum, 100 units/mL penicillin, 100 μg/mL streptomycin, and 2 mM L-glutamine (Sigma-Aldrich). Caco-2 cells were grown in complete culture medium (DMEM supplemented with 17% FBS and 1% antibiotic-antimycotic solution). All cells were kept in a water-jacketed incubator (model 3546, Forma Scientific, Inc., Marietta, OH, USA) maintained at 37° C. and an atmosphere of humidified air with 5% CO2. Medium was replaced every other day until cells reached the 80-90% confluence desired for re-plating or culturing mature, polarised barrier models.
When confluent, cells were seeded on Transwell® filters (12 mm diameter, 0.4 μm pore size; Corning Life Sciences, Holland) at 10^5 cells/cm^2. […]
(§2) Three polarised epithelial in-vitro tissue models, including lung epithelium (Calu-3), retinal pigment epithelium (ARPE-19) and intestinal epithelial (Caco-2) were used to study the efficiency of 200 μM 3OC12-HSL as a paracellular permeability enhancer for three different drugs: bevacizumab, aflibercept and doxorubicin (applied concentrations 250 μg/mL). The amount of drugs transported was determined via the conversion of fluorescence intensity to amount (μg or ng), using calibration curves constructed via serial standard dilutions. […]
(§3) Permeability experiments were initiated by applying 0.5 mL of the test solutions to the apical side of the cells (donor compartment of the Transwell®). […] Drug permeability was determined by sampling the basolateral solution at regular time intervals. […]

Calu-3 cell layers = assay type: cell-based, human; settings: 3OC12-HSL 200 μM
Protocol: as §1, with “2:” for “1:”, “Calu-3” for “ARPE-19”, “absence (dashed line)” for “absence”, “presence (line)” for “presence”, “the” for “the test”
Calu-3 cells obtained from American Type Culture Collection, USA were cultured using Dulbecco's Modified Eagle Medium (DMEM) supplemented with penicillin (100 U/mL), streptomycin (0.1 mg/mL), amphotericin (0.25 μg/mL), non-essential amino acids (NEM, 1%) and Fetal Bovine Serum (FBS, 10% v/v, Sigma-Aldrich, UK). The human-derived RPE cell line ARPE-19 was obtained from American Type Culture Collection. […]
as §2, §3

Calu-3 cells = assay: MTS assay of metabolic activity / cell viability; assay type: cell-based, human; settings: 5 nM to 200 μM, 6 hours
Protocol: To assess 3OC12-HSL and C7 PQS molecules cytotoxicity on cell viability of Calu-3 cell layers and to monitor short-term cytotoxicity during experiments, Calu-3 cells were treated with 3OC12-HSL and C7 PQS, at concentrations 5 nM, 1 μM, 50 μM, 100 μM and 200 μM, for 6 hours. At the end of the treatment, cell viability (through measuring metabolic activity) of cultures was determined by chromogenic MTS assay.

all three cell lines = assay: MTS metabolic activity in all three cell lines; assay type: cell-based, human; settings: 200 μM
Protocol: The viability of Calu-3 cells was determined by a chromogenic MTS method based on the measuring of mitochondrial respiration, assessed by the reduction of 3-(4,5-dimethylthiazol-2-yl)-5-(3-carboxymethoxyphenyl)-2-(4-sulfophenyl)-2H-tetrazolium to formazan. Calu-3 cells were cultured in a 96-well plate (CellTiter 96® Aqueous, Promega) at a density of 10^4 cells per well and incubated at 37° C., 5% CO2 for 24 hours. After 24 hours, the medium was replaced with 100 μl of test compounds dissolved in HBSS and then cells were incubated for 6 hours. HBSS and Triton X-100 (0.1% v/v in HBSS) were used as the negative and positive controls respectively. Bathing solutions were then aspirated and cells washed with PBS. Then culture medium (100 μl at 37° C.) plus MTS reagent (20 μl) were added into each well and cells were incubated for 2 hours. Absorbance at 492 was measured using a Dynex absorbance microplate reader (Dynex Technologies, USA) and converted into a percentage metabolic rate.
No significant reduction in cell metabolic activity was observed. Cell viability of >75% was retained in all cases.

Calu-3 = assay: Further in vitro Transwell studies: enhancing translocation of 4 kDa FITC-dextran; assay type: cell-based, human
Protocol: Exemplary molecules (a)-(1) investigated in coarse dose-response by FD4 delivery in Transwell culture (Calu-3). Each molecule was screened at 5 nM, 1 μM, 200 μM levels.
Each compound was screened at 200 μM level.
Each molecule was screened at 5 nM, 1 μM, 200 μM levels.

Calu-3 cell layer = assay: Delivery of siRNA across Calu-3 cell layer (Transwell); assay type: cell-based, human; settings: 200 μM
Protocol: FIG. 10: Delivery of siRNA (19 bases) across Calu-3 cell layer is enhanced in the presence of 30C12 HSL (200 μM) assessed as recovered fraction from the basolateral chamber of a Transwell.

[1] = system: human primary lung epithelium; assay: Human primary lung epithelium, air-liquid interface culture: TEER, FD4 and mAb delivery; assay type: cell-based
[2] = doxorubicin 250 μg/ml, after 5 hours

## CCCCCCCCCC(=O)CC(=O)N[C@H]1CCOC1=O [Agent 3OC12-HSL, N-(3-oxododecanoyl) homoserine lactone]
ARPE-19 cell layers; bevacizumab 250 μg/ml, at 60 minutes of exposure
  increase of bevacizumab permeability by 3OC12-HSL: 2.5 fold
ARPE-19 cell layers; [2]
  enhancement of doxorubicin transport by 3OC12-HSL: 6 fold
Calu-3 cell layers; aflibercept 250 μg/ml
  enhancement of aflibercept transport by 3OC12-HSL: 18 fold
Calu-3 cell layers; bevacizumab 250 μg/ml
  enhancement of bevacizumab transport by 3OC12-HSL: 10 fold
Calu-3 cell layers; [2]
  enhancement of doxorubicin transport by 3OC12-HSL: 17 fold
Calu-3 cells
  cytotoxic effect on cell viability within epithelial layers: do not have an adverse cytotoxic effect
All three cell lines
  metabolic activity compared to the negative control: did not change the metabolic activity
Calu-3
  Effective in enhancing translocation: Yes
Calu-3 cell layer
  delivery of siRNA (19 bases) across cell layer, recovered fraction from basolateral chamber: enhanced
[1]
  TEER (electrical resistance) upon agent exposure: temporarily reduced
  mAb (Mepolizumab) delivery upon agent exposure: increased
